Data from US20040248801A1, “Methods and reagents for regulation of cellular responses in biological systems” (priority 2000, published 2004).

Legend:
E. coli = details: galactose as attractant [34]; cited from earlier work
E. coli AW405 = assay: video microscopy motion analysis of bacteria; type: cell-based, Escherichia coli; details: first 5-15 seconds after addition of attractant
Method: FIG. 2A: Results of video microscopy motion analysis experiments. Bacteria (Escherichia coli) were treated with buffer alone, galactose, or compound 1 or 3 (Scheme 1) at the indicated saccharide concentrations. The results represent the average from at least five independent experiments performed in triplicate. Error bars represent the deviation between per-second averages during the ten second interval.
Ligands functionalized with galactose such as monovalent ligand 1 and multivalent ligand 3, also serve as attractants in vivo. […] To observe the effects of synthetic ligands on tumbling frequency, E. coli were treated with galactose or galactose-bearing ligands, and bacterial motion was recorded and analyzed using the method of Sager et al.. The tumbling frequency was assessed by averaging the mean angular velocity of the paths obtained in the first 5-15 seconds after addition of attractant (FIG. 2A). […]
Partially permeabilized bacteria (25 μM EDTA for 3 min. at room temperature, then quench with 50 μM CaCl2) at an OD550 of 0.1 were placed under a cover slip supported by additional cover slips in the method of Sager et al.. […] The bacterial motion at 28° C. was recorded, and the paths were analyzed using the ExpertVision system. Paths derived from the first 5 to 15 seconds following the introduction of attractant were analyzed. […] Data were analyzed using the Q and Students tests.

B. subtilis 011085 = assay: B. subtilis capillary accumulation assay; type: cell-based, Bacillus subtilis; details: saccharide residue concentration; 37° C., 30 min
Text: FIG. 4: Results of B. subtilis capillary accumulation assays using ROMP-derived glucose ligands (compound 5-7, Scheme 1). Buffer alone, glucose, or glucose-bearing compounds 5-7 were used as attractants in the capillary accumulation assay. Results are shown for glucose, compound 5, compound 6, and compound 7. Results are the average of at least four trials performed in duplicate and error bars represent single standard deviations.
To test the generality of the observed valency-dependent differences in chemotactic activities and to investigate the role of membrane permeability in responses to our ligands, chemotactic experiments in B. subtilis were conducted. B. subtilis is a gram-positive bacterium that, like gram-negative E. coli, is able to respond to saccharide chemoattractants. In the case of B. subtilis, the multivalent ligands can directly interact with saccharide-sensing receptors, without having to first traverse the outer membrane. Glucose is a chemoattractant for B. subtilis, but galactose is not. Glucose-carrying ligands (compounds 5-7, Scheme 1) were effective chemoattractants for B. subtilis as shown in capillary accumulation assays. […] Free chemoattractant signal glucose had maximal activity as a chemoattractant at 0.5 mM. In analogy to observations with E. coli, as the valency of the ligand increases, the saccharide residue concentration of maximum chemotaxis decreases. […] The results observed indicate that in evolutionarily divergent bacteria E. coli and B. subtilis, the valency of the attractant influences chemotactic response.
E. coli from an overnight culture were grown in LB to OD550 0.4-0.6, washed twice with E. coli chemotaxis buffer, and then partially permeabilized. Bacteria were resuspended in chemotaxis buffer to an OD550 0.1 and utilized in the capillary accumulation assay at 30° C. for 60 min, as previously described. […] Data was analyzed using the Q and Students tests.

Jurkat cells = assay: Jurkat cell aggregation; type: cell-based
Method: Percent of Jurkat cells present in aggregates is plotted against the treatment. […] Aggregate formation could be inhibited by addition of 50 mM methyl a-D-mannopyranoside (a man). Compounds 9-12 were added to a final mannose concentrations of 0.5 μM or 5 μM along with a final ConA concentration of 5 μg/mL. Results are the average of at least three independent experiments and error bars represent single standard deviations.
The ability of Con A clusters formed on ROMP-derived polymers to aggregate Jurkat cells was examined initially by light microscopy (see FIG. 10). […] For Jurkat cells, inhibition occurred even at low concentrations (0.5 μM) of monovalent ligands. […] Increasing the concentration of the multivalent ligand 10-fold (5 μM) abolished aggregation activity, consistent with site saturation. […] The ability of Con A complexed to multivalent ligands to interact with cell surfaces was thus tunable. […]
Cells were pelleted at 400×g, resuspended gently into 50 μL PBS, and then added to slides for visualization at 200× magnification on a Zeiss Axioscope outfitted with the appropriate filter set. Approximately 100-200 cells were counted from random fields on each day.
Clusters were scored for at least two cells in direct contact with each other and expressed as a percentage of the total number of objects (individual cells and clusters) counted. […]

His-tagged FGF-8b = biological target: T1, His-tagged FGF-8b (Homo sapiens, UniProt P55075); assay: cross-linking of FGF-8b (EGS, SDS-PAGE); type: binding; details: increasing ratio of polymer or heparin to FGF-8b
T1 sequence (P55075 23-215 isoform P55075-3 limits assumed): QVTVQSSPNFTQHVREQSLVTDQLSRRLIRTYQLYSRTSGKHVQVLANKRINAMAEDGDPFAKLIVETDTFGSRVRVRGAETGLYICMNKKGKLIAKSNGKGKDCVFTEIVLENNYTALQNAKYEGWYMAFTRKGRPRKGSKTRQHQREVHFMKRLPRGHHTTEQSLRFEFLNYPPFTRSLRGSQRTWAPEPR
Method: FIGS. 15A and B are illustrations of SDS-PAGE-gels (12%, under reducing conditions) comparing cross-linking of FGF-8b mediated by nickel-chelating polymer (FIG. 15A) and heparin (FIG. 15B). FGF-8b was incubated with polymer 6 for 1 hour at 0° C. The ratio of FGF-8b to polymer was as follows: a. 1:0.001, b. 1:0.003, c. 1:0.01, d. 1:0.03, e. 1:0.1, f. 1:0.3, f. 1:1. EGS (ethylene glycol bis[succinimidylsuccinate]) was added, and cross-linking was allowed to proceed for 5 minutes at 0° C. The reactions were quenched with ethanolamine (excess) for 1 hour at 0° C. Samples were concentrated under vacuum, analyzed on a 12% SDS-PAGE gel under reducing conditions, and detected with Coomassie staining.
Specifically, one of the functions of the oligosaccharide heparin in vitro is to oligomerize FGF ligand proteins and present them to the FGF receptor in a multivalent fashion. […]
FGF-8b was incubated with polymer 6 for 1 hour at 0° C. […] Samples were concentrated under vacuum, analyzed on a 12% SDS-PAGE gel under reducing conditions, and detected with Coomassie staining.
FGF-8b was incubated with heparin (Sigma, porcine intestinal mucosa, 17-19 kDa) for 1 hour at 0° C. […] Samples were concentrated under vacuum, analyzed on a 12% SDS-PAGE gel under reducing conditions, and detected with Coomassie staining. […]

## O=C[C@H](O)[C@@H](O)[C@@H](O)[C@H](O)CO [galactose, reference compound]
E. coli
  number of E. coli accumulated: 120,000 bacteria
E. coli AW405
  mean angular velocity (tumbling frequency) after addition of attractant: the mean angular velocity decreased

## O=C[C@H](O)[C@@H](O)[C@H](O)[C@H](O)CO [glucose, reference compound]
B. subtilis 011085
  concentration of maximum activity as chemoattractant: 0.5 mM

## CO[C@H]1O[C@H](CO)[C@@H](O)[C@H](O)[C@@H]1O [methyl α-D-mannopyranoside]
Jurkat cells; 50 mM
  effect on Con A aggregate formation: inhibited
Jurkat cells; ligand 0.5 μM premixed with Con A 5 μg/mL
  effect on Con A-mediated Jurkat cell aggregation: inhibited aggregation

## heparin
His-tagged FGF-8b
  cross-linking pattern of FGF-8b: pattern in cross-linking indicative of oligomerization due to a specific ligand/scaffold interaction

## O=C(NCCOC1OC(CO)C(O)C(O)C1O)C1C[C@@H]2C=CC1C2 (stereo partly shown) [Compound 5]
B. subtilis 011085
  concentration of maximum activity as chemoattractant: 1 mM
